Assay [1] has as its system T1, cAMP-dependent protein kinase.
T1 construct: purchased Sigma Chemical Co., St. Louis, Mo., USA
The experiment in a line: 3',5'-cAMP-dependent protein kinase inhibition (catalytic sub-unit, kemptide substrate). It is filed as biochemical. The following applies: 40 μM ATP, 15 minutes at 30° C.; for inhibition at 45 µg/mL: pH 6.9, 45 μg/ml inhibitor, read-out: % inhibition of cAMP-dependent protein kinase at an inhibitor concentration of 45 μg/ml; for % inhibition of cAMP-dependent protein kinase at an inhibitor concentration of 45 μg/ml: 45 μg/ml inhibitor, pH 6.9, hydrochloride. The method, then: Assay for 3', 5'-cAMP-Dependent Protein Kinase Inhibition
The catalytic sub-unit of cAMP-dependent protein kinase (Sigma) was reconstituted as described by Sigma (Sigma Chemical Co., St. Louis, Mo., USA). The enzyme activity was measured with kemptide (Sigma) (Leu-Arg-Arg-Ala-Ser-Leu-Gly) as the substrate. The inhibitor was preincubated with the enzyme, substrate (190 μM), Mg^2+ (5 mM), 0.25 mg/ml of BSA and 3.75 mM of mercaptoethanol in 50 mM of MOPA (4-morpholinopropanesulfonic acid), pH 6.9. The reaction was initiated by adding γ-^32 P ATP (40 μM). After 15 minutes at 30° C., an aliquot amount was transferred to p81 ion exchange paper (2×2 cm; Whatman Paper Ltd., Great Britain), the paper was immersed in 75 mM H3 PO4, washed and dried, and the incorporation of ^32 P was determined by means of a liquid scintillation counter.

Another assay relates to LXF 529. Put plainly: SRC Tumor Test (implantation under renal capsule of nude mouse), bronchogenic carcinoma LXF 529. The following applies: days 2-15. In kind it is in vivo, human tumor xenograft in nude mouse. The procedure:
(§1) Single cell suspensions (from cell culture A 549 or disaggregated human tumor xenografts LXF 529) in Beriplast (Behringwerke AG) were diluted 1:2 with RPMI 1640 supplemented with 15% FCS to a final cell concentration of 10^7 cells/50 μl. This suspension was sucked quickly into 50 μglass capillaries (diameter 1.5 mm), of which the inner walls had been moistered with a thrombin/CaCl2 solution (500 units thrombin in 1 ml 40 mmol CaCl2).
(§2) After solidification of the cell-fibrin mixture (about 5 min at RT) the fibrin clot has been removed from the glass capillary into a petridish by air pressure. The fibrin clot was cut into 2 mm pieces (≈5×10^5 cells per piece) and the pieces were stored in RPMI 1640 supplemented with 15% FCS until implantation.
(§3) A single fibrin piece was transferred under the renal capsule of a nude mouse and, subsequently, two perpendicular diameters of the implanted piece were measured by microscope with an ocular micrometer (day 0). The tumor size was calculated according to
b=diameter perpendicular to a
The substance was given i.v. or p.o. daily on day 2-15 with the maximal tolerable dose (MTD) and a dose 2/3 of the MTD value according to the pretests. 5 mice/group were used.
(§4) On day 21 after implantation the animals were sacrificed, the kidney was exteriorized and the tumor size was measured again. The effectivity of the test drug was calculated from the tumor growth inhibition.
The relative tumor size VR was calculated according the formula [formula] Vt =tumor size at the end of experiment (day 21) V0 =tumor size as day of implantation
Subsequently the median relative tumor size of the treated group (VT) was related to the corresponding median relative tumor size of controls (VC) according to the formula [formula] The statistical significance (p 0.05) of the antitumoral effects was calculated using the Wilcoxon U test.

For a further assay, the system named is A 549. Put plainly: SRC Tumor Test (implantation under renal capsule of nude mouse), bronchogenic carcinoma A 549. In kind it is in vivo. The following applies: days 2-15. The method, then: as §1, §2, §3
b=diameter perpendicular to a […]
as §4
The relative tumor size VR was calculated according the formula [formula] […]

Counter-ions that a name gives are not always drawn.

`CN1CCC(c2c(O)cc(O)c3c(=O)cc(-c4ccccc4Br)oc23)C(O)C1` (racemic) [2-bromophenyl (±)]: in assay [1], the inhibition at 45 µg/mL came out at 63%.
On to `CN1CCC(c2c(O)cc(O)c3c(=O)cc(-c4ccccc4F)oc23)C(O)C1` (racemic) [2-fluorophenyl HCl (±)], for which, in assay [1], the inhibition at 45 µg/mL stood at 0%.
On to `CN1CCC(c2c(O)cc(O)c3c(=O)cc(-c4ccc(-c5ccccc5)cc4)oc23)C(O)C1` (racemic) [4-biphenyl HCl (±)], for which the inhibition at 45 µg/mL in assay [1] amounted to 37%.
`CN1CCC(c2c(O)cc(O)c3c(=O)cc(-c4ccc(Br)cc4)oc23)C(O)C1` (racemic) [4-bromophenyl HCl (±)]: in assay [1], the inhibition at 45 µg/mL was determined as 65%.
Turning to `CN1CCC(c2c(O)cc(O)c3c(=O)cc(-c4ccc(Cl)cc4)oc23)C(O)C1` (racemic) [4-chlorophenyl HCl (±)], the inhibition at 45 µg/mL in assay [1] was 37%.
Consider `CN1CCC(c2c(O)cc(O)c3c(=O)cc(-c4ccc(F)cc4)oc23)C(O)C1` (racemic) [4-fluorophenyl HCl (±)], for which, in assay [1], the inhibition at 45 µg/mL came out at 25%.
For the compound `CN1CCC(c2c(O)cc(O)c3c(=O)cc(Cc4ccccc4Cl)oc23)C(O)C1` (racemic) [(2-chlorophenyl)methyl HCl (±)], the inhibition at 45 µg/mL in assay [1] came out at 69%.
In the case of `CCc1cc(=O)c2c(O)cc(O)c(C3CCN(C)CC3O)c2o1` (racemic) [ethyl HCl (±)], the inhibition at 45 µg/mL in assay [1] is 0%.
Turning to `CCCc1cc(=O)c2c(O)cc(O)c(C3CCN(C)CC3O)c2o1` (racemic) [n-propyl HCl (±)], in assay [1], the inhibition at 45 µg/mL came to 0%.
Take `CN1CC[C@H](c2c(O)cc(O)c3c(=O)cc(-c4ccccc4Cl)oc23)[C@H](O)C1` (relative stereo) [2-chlorophenyl HCl (±), (±)-cis-5,7-dihydroxy-2-(2-chlorophenyl)-8-[4-(3-hydroxy-1-methyl)piperidinyl]-4H-1-benzopyran-4-one hydrochloride]: in assay [1], the inhibition at 45 µg/mL came to 29%.
Turning to `CN1CC[C@H](c2c(O)cc(O)c3c(=O)cc(-c4ccc5ccccc5c4)oc23)[C@H](O)C1` (relative stereo) [2-naphthyl HCl (±), (±)-cis-5,7-dihydroxy-2-(2-naphthyl)-8-[4-(3-hydroxy-1-methyl)piperidinyl]-4H-1-benzopyran-4-one hydrochloride], the inhibition at 45 µg/mL in assay [1] was 0%.
Same read-out and setting: next, `CN1CC[C@H](c2c(O)cc(O)c3c(=O)cc(-c4ccccn4)oc23)[C@H](O)C1` (relative stereo) [2-pyridyl HCl (±), (±)-cis-5,7-dihydroxy-2-(2-pyridyl)-8-[4-(3-hydroxy-1-methyl)piperidinyl]-4H-1-benzopyran-4-one hydrochloride]: 0%; `CN1CC[C@H](c2c(O)cc(O)c3c(=O)cc(-c4cccs4)oc23)[C@H](O)C1` (relative stereo) [2-thiophenyl (±), (±)-cis-5,7-dihydroxy-2-(2-thienyl)-8-[4-(3-hydroxy-1-methyl)piperidinyl]-4H-1-benzopyran-4-one]: 14%.
In the case of `CN1CC[C@H](c2c(O)cc(O)c3c(=O)cc(-c4cccnc4)oc23)[C@H](O)C1` (relative stereo) [3-pyridyl HCl (±), (±)-cis-5,7-dihydroxy-2-(3-pyridyl)-8-[4-(3-hydroxy-1-methyl)piperidinyl]-4H-1-benzopyran-4-one hydrochloride], the inhibition at 45 µg/mL in assay [1] is 0%.
With `Cc1ccc(-c2cc(=O)c3c(O)cc(O)c([C@H]4CCN(C)C[C@H]4O)c3o2)cc1` (relative stereo) [4-methylphenyl HCl (±), (±)-cis-5,7-dihydroxy-2-(4-methylphenyl)-8-[4-(3-hydroxy-1-methyl)piperidinyl]-4H-1-benzopyran-4-one hydrochloride], the inhibition at 45 µg/mL in assay [1] came out at 55%.
As to `CN1CC[C@H](c2c(O)cc(O)c3c(=O)cc(-c4ccncc4)oc23)[C@H](O)C1` (relative stereo) [4-pyridyl HCl (±), (±)-cis-5,7-dihydroxy-2-(4-pyridyl)-8-[4-(3-hydroxy-1-methyl)piperidinyl]-4H-1-benzopyran-4-one hydrochloride], in assay [1], the inhibition at 45 µg/mL stood at 12%.
Regarding `CN1CC[C@H](c2c(O)cc(O)c3c(=O)cc(-c4cccc(Br)c4)oc23)[C@H](O)C1` (relative stereo) [Exmp. 17, (±)-cis-5,7-Dihydroxy-2-(3-bromophenyl)-8-[4-(3-hydroxy-1-methyl)piperidinyl]-4H-1-benzopyran-4-one hydrochloride], the T/C (commonly the ratio of treated to control) with LXF 529 (LXF 529, 25 mg/kg/day i.v., n.s. = not significant (P > 0.05)) was determined as 81%; in the assay with LXF 529 (LXF 529, 35 mg/kg/day i.v.) it was 67%; in the assay on A 549 (A 549, 35 mg/kg/day i.v.), 70%; with A 549 (A 549, 100 mg/kg/day p.o.) it was 73%.
Consider `CN1CC[C@H](c2c(O)cc(O)c3c(=O)cc(-c4ccc(O)cc4)oc23)[C@H](O)C1` (relative stereo) [Exmp. 19, (±)-cis-5,7-Dihydroxy-2-(4-hydroxyphenyl)-8-[4-(3-hydroxy-1-methyl)piperidinyl]-4H-1-benzopyran-4-one], for which the T/C was determined as 98% with LXF 529 (LXF 529, 100 mg/kg/day i.v., n.s. = not significant (P > 0.05)) and 80% in the assay on LXF 529 (LXF 529, 150 mg/kg/day i.v.).
Turning to `CN1CC[C@H](c2c(O)cc(O)c3c(=O)cc(-c4ccccc4)oc23)[C@H](O)C1` (relative stereo) [phenyl HCl (±), (±)-cis-5,7-dihydroxy-2-phenyl-8-[4-(3-hydroxy-1-methyl)piperidinyl]-4H-1-benzopyran-4-one hydrochloride], the inhibition at 45 µg/mL in assay [1] is 48%.
As for `CN1CC[C@H](c2c(O)cc(O)c3c(=O)cc(-c4ccccc4Cl)oc23)[C@H](O)C1` (single isomer, unassigned) [2-chlorophenyl HCl (+), (+)-cis-5,7-dihydroxy-2-(2-chlorophenyl)-8-[4-(3-hydroxy-1-methyl)piperidinyl]-4H-1-benzopyran-4-one hydrochloride], in assay [1], the inhibition at 45 µg/mL stood at 27%.
With `CN1CC[C@H](c2c(O)cc(O)c3c(=O)cc(-c4ccccn4)oc23)[C@H](O)C1` (single isomer, unassigned) [2-pyridyl HCl (-), (-)-cis-5,7-dihydroxy-2-(2-pyridyl)-8-[4-(3-hydroxy-1-methyl)piperidinyl]-4H-1-benzopyran-4-one hydrochloride], in assay [1], the inhibition at 45 µg/mL was determined as 6%.
As for `CN1CC[C@H](c2c(O)cc(O)c3c(=O)cc(-c4ccccc4Cl)oc23)[C@H](O)C1` (single isomer, unassigned) [Exmp. 9, (-)-cis-5,7-Dihydroxy-2-(2-chlorophenyl)-8-[4-(3-hydroxy-1-methyl)piperidinyl]-4H-1-benzopyran-4-one hydrochloride], the T/C came to 59% with LXF 529 (LXF 529, 2 mg/kg/day i.v.) and 51% in the assay on LXF 529 (LXF 529, 4 mg/kg/day i.v.).
Take `CCCc1cc(=O)c2c(O)cc(O)c(C3CCN(C)CC3O)c2o1` (single isomer, unassigned) [n-propyl HCl (-)]: the inhibition at 45 µg/mL in assay [1] came out at 5%.
Turning to `CN1CC[C@H](c2c(O)cc(O)c3c(=O)cc(-c4ccccc4)oc23)[C@H](O)C1` (single isomer, unassigned) [phenyl HCl (+), (+)-cis-5,7-dihydroxy-2-phenyl-8-[4-(3-hydroxy-1-methyl)piperidinyl]-4H-1-benzopyran-4-one hydrochloride], in assay [1], the “% inhibition of cAMP-dependent protein kinase at an inhibitor concentration of 45 μg/ml” value was determined as 13%.
With `CN1CC[C@H](c2c(O)cc(O)c3c(=O)cc(-c4ccccc4)oc23)[C@H](O)C1` (single isomer, unassigned) [phenyl HCl (-), (-)-cis-5,7-dihydroxy-2-phenyl-8-[4-(3-hydroxy-1-methyl)piperidinyl]-4H-1-benzopyran-4-one hydrochloride], in assay [1], the “% inhibition of cAMP-dependent protein kinase at an inhibitor concentration of 45 μg/ml” value is listed as 46%.

The values above are taken from patent US5284856A, “Oncogene-encoded kinases inhibition using 4-H-1-benzopyran-4-one derivatives” (Hoechst Aktiengesellschaft, priority 1988, dated 1994).
